{"source": "patent US8652799B2", "about": "“Method of detecting bioactive molecules in a fluid sample” (priority 2008, dated 2014)", "format_in_all_cases": "cell-based", "key": {"Dunaliella tertiolecta": {"tested_on": "Dunaliella tertiolecta", "settings": "15 min. green light exposition at room temperature; neutral pH (pH 7); 350 000 cells/mL", "method": "(§1) The detection threshold was obtained with the geometric mean. It was calculated with the following formula: Detection threshold=(CSEO×CMEO)^1/2 where\n(§2) CMEO=minimal concentration resulting in a detectable inhibition of the algae efficacy.\n(§3) CSEO and CMEO were estimated by a variance analysis ANNOVA™ followed by a Dunnett multiple comparison by comparing the mean efficacy of each tested concentration with the control mean. Calculations were performed with TOXSTAT™ (Version 3.5).\nA Dunaliella tertiolecta culture was prepared as described in Example 2 above. As indicated in Example 2, the algae were reactivated before testing under ambient light and at room temperature during 45 minutes.\nThe algae formulations were then incubated for 15 minutes with water containing one of the various contaminants listed in Table 2 below at neutral pH under green light and at room temperature. The algae concentration was 350 000 cells/mL (500 μL of algae within 2 mL of aqueous solution (i.e. distilled water) containing substance to detect at indicated concentrations). For each substances, 5 concentrations in triplicates were tested. The TOXSTAT™ software was used to calculate from inhibition values and standard deviations obtained, the maximum concentration without observable effect and the minimal concentration with observable effects (See Table 2 below). The temperature was controlled by a thermostatic bath. Tests were performed in triplicates. The fluorescence emitted by each formulation was then measured with Luminotox™, a fluorometer that measures photosynthetic activity and detection threshold determined as described in the Example above."}, "Chlorella vulgaris [1]": {"tested_on": "Chlorella vulgaris", "assay": "Stability of Chlorella vulgaris assessed by the CI20 of atrazine", "settings": "10 min green light, room temperature; + or − two sigma 0.002; algae stored at 4° C. and 20° C.; atrazine tested 0-0.04 mg/L", "method": "The stability of Chlorella vulgaris was evaluated by determining the Cl20 of atrazine using seven different atrazine concentrations. Cl20 is the concentration of atrazine inhibiting 20% of the efficacy emitted by Chlorella vulgaris as compared to a control Chlorella vulgaris preparation. The Cl20 is statistically determined with the software Icp version 2.0. Stability over time is determined by assessing the number of Cl20 within a range of 2 σ of average.\nA Chlorella vulgaris culture was prepared as described in Example 1 above. As indicated above, the algae were reactivated before testing during 90 minutes under ambient light and at room temperature.\nThe culture was then incubated with atrazine for 10 minutes under green light and at room temperature. The cellular concentration of the algae was 5×10^6 cells/mL of solution (100 μL algae in 2 mL of atrazine-containing aqueous solution (i.e. distilled water)). The concentration of atrazine varied between 0 and 0.04 mg/L. Testing was performed in triplicates. The fluorescence emitted by each formulation was then measured with Luminotox™, a fluorometer that measures photosynthetic activity."}, "Chlorella vulgaris [2]": {"tested_on": "Chlorella vulgaris", "settings": "10-15 min. green light exposition at room temperature; neutral pH (pH 7); 5×10^6 cells/mL", "method": "The algae concentration was 5×10^6 cells/mL (100 μL of algae within 2 mL of aqueous solution (i.e. distilled water)) containing the substance to detect at indicated concentrations. For each substances, 5 concentrations in triplicates were tested. The TOXSTAT™ software was used to calculate from inhibition values and standard deviations obtained, the maximum concentration without observable effect and the minimal concentration with observable effects. The threshold was calculated with the following formula: (maximum concentration without observable effect x minimal concentration with observable effects)^1/2 (See Table 2 below). The temperature was controlled by a thermostatic bath.\nas §1, §2, §3"}, "Anabaena sp.": {"tested_on": "Anabaena sp.", "assay": "Detection of bioactive molecules with Anabaena sp.: inhibition of photosynthetic fluorescence (Luminotox)", "settings": "10 min, neutral pH; for inhibition at 0.001 ppm: 1 ppb", "method": "The photosynthetic efficiency is determined with the following formula (F2−F1)/F2. Any molecule affecting directly or indirectly the photosystems modify either F1 or F2 which modification necessarily decreases the photosynthetic efficiency. The inhibition curve of a particular molecule is determined by calculating the activity of the photosystems in the absence of the molecule and in the presence of the molecule and comparing both efficiency as follows as described in Conrad 1993:\nWithout Inhibitor (wi): efficiency(wi)=(F2(wi)−F1(wi)/F2(wi) With Inhibitor: Relative photosynthetic efficiency(sample)=(F2(sample)−F1(sample))/F2(wi) Percentage Efficiency: efficiency (%)=(efficiency(sample)×100)/efficiency(wi) Percentage Inhibition: Inhibition (%)=100−efficiency (%)\nAn Anabaena sp. culture was prepared as described in Example 3 above. As indicated in Example 3, the cyanobacteria were reactivated before testing under ambient light and at room temperature during 60 minutes.\nThe culture was then incubated with bioactive molecules listed in Table 1 below at concentrations of 1 ppm (except for atrazine which was used at a concentration of 1 ppb) for 10 minutes under ambient light followed by 10 minutes under green light and neutral pH. The cellular concentration was 1.0×10^7 cells/mL (100 μL of cyanobacteria within 2 mL of bioactive agent containing aqueous solution (i.e. distilled water)). Testing was performed in triplicates. The fluorescence emitted by each formulation was then measured with Luminotox™ a fluorometer that measures photosynthetic activity."}, "Chlorella vulgaris [3]": {"tested_on": "Chlorella vulgaris", "assay": "Tetracycline detection with Chlorella vulgaris (ambient light, 35° C., low algae concentration)", "settings": "within 15 minutes, neutral pH, 2.5×10^6 cells/mL", "method": "A Chlorella vulgaris culture was prepared as described in Example 1 above. As indicated in Example 1, the algae were reactivated before testing under ambient light and at room temperature during 90 minutes.\nThe algae formulation was then incubated for 15 or 60 minutes with water containing tetracycline at the indicated concentrations (FIG. 17) under ambient light at a temperature of 35° C. and at a neutral pH. Algae concentrations of 2.5×10^6 cells/mL (50 μL of algae within 2 mL of tetracycline-containing aqueous solutions (i.e. distilled water)) were tested. Testing was performed in triplicates. The fluorescence emitted by each formulation was then measured with Luminotox™, a fluorometer that measures photosynthetic activity."}}, "note": "Read-outs that look alike come from different tables or passages of the source.", "data": [{"smiles": "CCNc1nc(Cl)nc(NC(C)C)n1", "note": "[atrazine]", "values": [{"measurement": "Detection threshold", "setting": "Dunaliella tertiolecta", "result": 0.01, "unit": "ppm"}, {"measurement": "CI20 (concentration inhibiting 20% of the efficacy), average over storage", "setting": "Chlorella vulgaris [1]", "result": 0.0037}, {"measurement": "Detection threshold", "setting": "Chlorella vulgaris [2]", "result": 0.0007, "unit": "ppm"}, {"measurement": "inhibition at 0.001 ppm", "setting": "Anabaena sp.; 10 min ambient light followed by 10 min green light, read-out: Inhibition obtained (followed by 10 min green light)", "result": 13, "unit": "%"}, {"measurement": "inhibition at 0.001 ppm", "setting": "Anabaena sp.; 10 min ambient light, read-out: Inhibition obtained (10 min ambiant light)", "result": 1, "unit": "%"}]}, {"smiles": "CN(C)[C@@H]1C(O)=C(C(N)=O)C(=O)[C@@]2(O)C(O)=C3C(=O)c4c(O)cccc4[C@@](C)(O)[C@H]3C[C@@H]12", "note": "[tetracycline]", "values": [{"measurement": "Concentration detected", "setting": "Chlorella vulgaris [3]", "result": 10, "unit": "µg/mL"}, {"measurement": "inhibition at 1 ppm", "setting": "Anabaena sp.; 10 min ambient light followed by 10 min green light, read-out: Inhibition obtained at 1 ppm (followed by 10 min green light)", "result": 30, "unit": "%"}, {"measurement": "inhibition at 1 ppm", "setting": "Anabaena sp.; 10 min ambient light, 1.0×10^7 cells/mL, read-out: Inhibition obtained at 1 ppm (10 min ambiant light)", "result": 0, "unit": "%"}]}]}
